In assay [1] the target is Serotonin 2 (5-HT2) receptor (Homo sapiens, UniProt P41595+P28223+P28335). In words: Displacement of [3H]ketanserin from 5-hydroxytryptamine 2 receptor. The assay is classed as protein assay. Background: In a radioligand displacement assay an active substance lowers the binding of a labelled ligand.
Assay [2] has as its target D(2) dopamine receptor (Homo sapiens, UniProt P14416). Put plainly: Displacement of [3H]-spiperone from dopamine D2 receptor.

pIC50: −log10 of the molar value.

Sequence of D(2) dopamine receptor (P14416 whole entry): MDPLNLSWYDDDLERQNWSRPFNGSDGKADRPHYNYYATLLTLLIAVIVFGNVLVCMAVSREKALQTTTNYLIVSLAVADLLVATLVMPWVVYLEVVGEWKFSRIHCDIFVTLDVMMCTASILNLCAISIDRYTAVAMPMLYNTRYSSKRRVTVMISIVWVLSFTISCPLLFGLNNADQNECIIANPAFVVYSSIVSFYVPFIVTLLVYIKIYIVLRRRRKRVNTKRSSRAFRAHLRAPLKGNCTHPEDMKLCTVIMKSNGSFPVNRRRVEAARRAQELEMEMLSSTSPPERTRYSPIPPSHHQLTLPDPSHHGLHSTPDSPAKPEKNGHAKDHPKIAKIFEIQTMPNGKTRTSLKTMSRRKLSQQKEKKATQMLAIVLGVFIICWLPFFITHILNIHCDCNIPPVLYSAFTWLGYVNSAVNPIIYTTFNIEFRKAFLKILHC

As usually defined, the Ki is a dissociation constant, usually derived from enzyme kinetics or from competition with a known ligand. A high value points to a looser hold on the target. A word on the pIC50: it is the IC50 on a negative log10 scale, so that one unit is a factor of ten. Low readings indicate a high IC50, high ones a low IC50. In assay [1], `C(=C\c1ccccc1)/CNC1CCN(Cc2ccccc2)CC1.O=C(O)/C=C/C(=O)O` gave a Ki of 4.6 µM. This molecule also showed a pIC50 in assay [2] of under 5.00.

As for `CN(C(=O)C#Cc1ccccc1)C1CCN(Cc2ccccc2)CC1.O=C(O)/C=C/C(=O)O`, the Ki in assay [1] amounted to 1.7 µM. In assay [2], this molecule showed a pIC50 of 5.31.

As for `CN(C/C=C/c1ccccc1)C1CCN(Cc2ccccc2)CC1.O=C(O)/C=C/C(=O)O`, in assay [1], the Ki was 0.84 µM. This molecule gave a pIC50 in assay [2] of under 5.00.

Molecule `CN(CC#Cc1ccccc1)C1CCN(Cc2ccccc2)CC1.O=C(O)/C=C/C(=O)O` came in with a Ki in assay [1] of 0.32 µM. The same molecule had a pIC50 in assay [2] of 5.39.

With `C(#Cc1ccccc1)CN(c1ccccc1)C1CCN(Cc2ccccc2)CC1.O=C(O)/C=C/C(=O)O`, the Ki in assay [1] was 0.28 µM. Also, the negative logarithm of the IC50 (pIC50) in assay [2] is 6.05.

Take `O=C(C#Cc1ccccc1)NC1CCN(Cc2ccccc2)CC1.O=C(O)/C=C/C(=O)O`: in assay [1], the Ki was 0.28 µM. This molecule had a pIC50 in assay [2] of 5.60.

With `C(=C\c1ccccc1)/CN(c1ccccc1)C1CCN(Cc2ccccc2)CC1.O=C(O)/C=C/C(=O)O`, in assay [1], the Ki is over 10 µM. In addition, in assay [2], the pIC50 was under 5.00.

Molecule `C(#Cc1ccccc1)CNC1CCN(Cc2ccccc2)CC1.O=C(O)/C=C/C(=O)O` gave a Ki in assay [1] of 3.3 µM. Moreover, the pIC50 in assay [2] was under 5.00.

Take `O=C(/C=C/c1ccccc1)NC1CCN(Cc2ccccc2)CC1.O=C(O)/C=C/C(=O)O`: the Ki in assay [1] was 0.1 µM. For the same molecule, the pIC50 in assay [2] is 5.33.

Consider `C(=C\c1ccccc1)/CN(C/C=C/c1ccccc1)C1CCN(Cc2ccccc2)CC1.O=C(O)/C=C/C(=O)O`, for which the Ki in assay [1] was determined as 0.55 µM. In assay [2], this molecule had a pIC50 of under 5.00.

For the molecule `CN(C(=O)/C=C/c1ccccc1)C1CCN(Cc2ccccc2)CC1.O=C(O)/C=C/C(=O)O`, the Ki in assay [1] came to 1.5 µM. Further, the pIC50 in assay [2] is 5.15.

The values are drawn from ChEMBL document CHEMBL1127992, “Novel conformationally restricted aromatic piperidines as selective sigma receptor ligands” (Bioorg Med Chem Lett, 1994).
